Source: patent US20110104301A1, “METHODS OF REDUCING PAIN AND INFLAMMATION” (Georgetown University, A Congressionally Chartered …, priority 2008, published 2011)

Experiments:
[1] = system: AITC-sensitive DRG neurons; test: Voltage- and current-clamp of DRG sensory neurons; type: cell-based, mouse; conditions: 10 of 11 cells
Method: Electrophysiology. HEK 293F cells were transfected with rat TRPV1, TRPA1, and TRPM8 (gift of David Julius, University of California, San Francisco). Dorsal root ganglia were cultured from adult mice (C57B16/J wild type and TRPV1-null, and mixed B6/129 background TRPA1-null) in Neurobasal +2% B-27 medium (Invitrogen), 0.1% L-glutamine and 1% penicillin/streptomycin. Whole-cell and single-channel patch-clamp recordings were performed by using an EPC8 amplifier (HEKA Electronics). For whole-cell and excised patch recordings the bath solution contained 140 mMNaCl, 4 mMKCl, 1 mMMgCl2, 1.2 mMCaCl2, 10 mMHepes, 10 mM glucose, pH 7.3. For cell-attached experiments, NaCl was replaced with KCl in the bath solution. The pipette solution contained 140 mM NaCl or KCl, 10 mM Hepes, 5 mM EGTA, pH 7.3. For neuronal recording NaCl was replaced with K-gluconate (plus 1 mMATP, 0.2 mM GTP). Solutions were applied via a gravity-fed system. Separate outlets were used to apply capsaicin and AITC solutions to avoid contamination. Voltage-dependent properties were measured as described in Matt and Ahern, J. Physiol. 585:469-482 (2007). Current-voltage measurements comprised a 200-ms ramp from −150 mV to +200 mV. The baseline currents under control conditions were subtracted. For cell-attached experiments, peak amplitudes were measured from all-points histograms, and open probability was measured as NPo>750 ms. Defolliculated Xenopus laevis oocytes were injected with ≈10 ng of hTRPA1 (gift of Ardem Patapoutian, The Scripps Research Institute, La Jolla, Calif.). Oocytes were placed in a Perspex chamber and continuously superfused (5 ml min^−1) with Ca^2+-free solution containing 100 mM NaCl, 2.5 mM KCl, 5 mM Hepes, 1 mM MgC12 and titrated to pH 7.3 with ˜5 mM NaOH.

Drosophila TRPA1 = target: T1, Drosophila TRPA1 (Drosophila melanogaster, UniProt Q7Z020); test: Current-voltage recordings in dTRPA1-expressing HEK293 cells; type: cell-based; conditions: desflurane at concentrations up to 3 mM
T1 construct: expressed in transfected cells; host or cells: HEK293
T1 sequence (Q7Z020 1-1197): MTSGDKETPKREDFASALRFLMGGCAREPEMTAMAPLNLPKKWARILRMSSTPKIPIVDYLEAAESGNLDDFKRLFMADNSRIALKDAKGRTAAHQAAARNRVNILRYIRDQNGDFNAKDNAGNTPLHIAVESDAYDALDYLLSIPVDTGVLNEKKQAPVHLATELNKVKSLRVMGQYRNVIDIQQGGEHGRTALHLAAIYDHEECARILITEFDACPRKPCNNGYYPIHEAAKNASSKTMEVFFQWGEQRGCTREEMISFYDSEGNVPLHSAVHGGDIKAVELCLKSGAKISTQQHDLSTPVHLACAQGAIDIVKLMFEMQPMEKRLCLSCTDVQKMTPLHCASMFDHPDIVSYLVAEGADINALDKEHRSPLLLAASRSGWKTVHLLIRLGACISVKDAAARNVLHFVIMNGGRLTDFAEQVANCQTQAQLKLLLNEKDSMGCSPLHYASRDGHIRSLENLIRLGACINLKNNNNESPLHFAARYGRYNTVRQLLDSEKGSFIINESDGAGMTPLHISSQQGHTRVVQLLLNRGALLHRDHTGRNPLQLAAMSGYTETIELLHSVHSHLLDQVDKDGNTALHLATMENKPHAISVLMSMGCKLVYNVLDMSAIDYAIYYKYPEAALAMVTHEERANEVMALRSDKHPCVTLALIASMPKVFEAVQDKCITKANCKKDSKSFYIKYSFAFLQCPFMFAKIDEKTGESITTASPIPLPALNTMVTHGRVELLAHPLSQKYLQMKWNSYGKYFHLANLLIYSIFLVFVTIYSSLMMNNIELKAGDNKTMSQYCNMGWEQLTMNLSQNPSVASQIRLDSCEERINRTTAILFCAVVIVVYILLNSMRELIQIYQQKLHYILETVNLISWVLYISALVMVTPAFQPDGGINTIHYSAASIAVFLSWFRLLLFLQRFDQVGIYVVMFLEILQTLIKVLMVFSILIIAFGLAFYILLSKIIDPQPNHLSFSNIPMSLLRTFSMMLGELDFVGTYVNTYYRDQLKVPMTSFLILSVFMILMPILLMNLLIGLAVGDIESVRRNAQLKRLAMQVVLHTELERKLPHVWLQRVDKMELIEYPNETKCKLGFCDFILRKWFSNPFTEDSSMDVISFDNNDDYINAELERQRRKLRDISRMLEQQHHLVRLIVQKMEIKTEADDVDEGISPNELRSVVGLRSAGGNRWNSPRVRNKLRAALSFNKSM
Method: (§1) A genetic approach was used to identify critical sites in TRPA1 and TRPV1 required for activation by general anesthetics. Drosophila TRPA1 is insensitive to desflurane (at concentrations up to 3 mM). […] Note that dTRPA1 is insensitive to AITC. Next, several chimeric TRP proteins containing dTRPA1 (unresponsive to desflurane) and mTRPA1 were tested. For the dTRPA1-mN chimera, the mouse 720 amino acid N-terminus was exchanged for the drosophila N-terminus. The N-terminal domain contains essential binding sites for AITC, and therefore studying this chimera tests an important role for the N-terminus in anesthetic-sensing. […] The mTRPA1-dTM5 construct was then studied, which is the mouse protein containing the fifth transmembrane domain of the drosophila protein.

dTRPA1-mN chimera = target: T2, dTRPA1-mN chimera (UniProt Q7Z020+Q8BLA8); test: Current-voltage recordings of chimera dTRPA1-mN; type: cell-based; conditions: mouse N-terminus substituted
T2 construct: mouse TRPA1 N-terminus (720 amino acids); expressed in transfected cells
Method: as §1

TRPV1 = TRPV1 (Rattus norvegicus, UniProt O35433); test: Voltage-clamp of TRPV1-expressing Xenopus oocytes (capsaicin, protons, heat); type: cell-based; conditions: PDBu 200 nM, 3 minutes
Method: Oocyte electrophysiology. […] Oocytes were placed in a Perspex chamber and continuously superfused (5 ml min-1) with Ca2+-free solution containing (in mM): 100 NaCl, 2.5 KCl, 5 HEPES, 1 MgCl2 and titrated to pH 7.3 with ˜5 mM NaOH. For solutions <pH 6.0, HEPES was replaced with either 5 mM MES or 5 mM sodium citrate. Oocytes were routinely voltage-clamped at −60 mV at 22-23° C. For heat activation, bath temperature was raised from ˜22-50° C. over ˜100 s using an in-line solution heater (Warner Instruments). The temperature was continuously monitored with a probe placed within 2 mm of the oocyte. The temperature-activation threshold was defined as a 20% increase in current above baseline.
Volatile general anesthetics. Saturated stock solutions of volatile general anesthetics (VGAs) were prepared in gas-tight bottles by dissolving excess anesthetic agents in bath solutions and stirring vigorously overnight. From these stock solutions fresh dilutions were made up every 40-60 minutes. Concentrations of volatile anesthetics in the bath solutions were verified using a modified head-space gas chromatography method. The gas chromatograph (Carlo Erba, Milan, Italy) was equipped with a flame ionization detector (FID) and mass spectrometer. The carrier gas was hydrogen (60 kPa column head pressure) and the fused silica capillary column, coated with polysiloxane SE-30, was 25 m×0.25 mm. Injector temperature was 250° C., FID temperature was 300° C. and the oven was maintained at 90° C. Standards were prepared from a mixture of halothane, isoflurane, and sevoflurane dissolved in acetonitrile with enflurane as an internal standard.

mutant S502A/S800A TRPV1 = target: T3, mutant S502A/S800A TRPV1 (Rattus norvegicus, UniProt O35433, S502A/S800A); test: Heat activation in oocytes expressing mutant S502A/S800A TRPV1; type: cell-based
T3 construct: expressed in transfected cells; host or cells: Xenopus laevis oocytes (cRNA injection)
Method: Oocyte electrophysiology. […] Oocytes were placed in a Perspex chamber and continuously superfused (5 ml min-1) with Ca2+-free solution containing (in mM): 100 NaCl, 2.5 KCl, 5 HEPES, 1 MgCl2 and titrated to pH 7.3 with 5 mM NaOH. For solutions <pH 6.0, HEPES was replaced with either 5 mM MES or 5 mM sodium citrate. Oocytes were routinely voltage-clamped at -60 mV at 22-23° C.

Chain of TRPV1 (O35433 whole entry, the tested form may be a part): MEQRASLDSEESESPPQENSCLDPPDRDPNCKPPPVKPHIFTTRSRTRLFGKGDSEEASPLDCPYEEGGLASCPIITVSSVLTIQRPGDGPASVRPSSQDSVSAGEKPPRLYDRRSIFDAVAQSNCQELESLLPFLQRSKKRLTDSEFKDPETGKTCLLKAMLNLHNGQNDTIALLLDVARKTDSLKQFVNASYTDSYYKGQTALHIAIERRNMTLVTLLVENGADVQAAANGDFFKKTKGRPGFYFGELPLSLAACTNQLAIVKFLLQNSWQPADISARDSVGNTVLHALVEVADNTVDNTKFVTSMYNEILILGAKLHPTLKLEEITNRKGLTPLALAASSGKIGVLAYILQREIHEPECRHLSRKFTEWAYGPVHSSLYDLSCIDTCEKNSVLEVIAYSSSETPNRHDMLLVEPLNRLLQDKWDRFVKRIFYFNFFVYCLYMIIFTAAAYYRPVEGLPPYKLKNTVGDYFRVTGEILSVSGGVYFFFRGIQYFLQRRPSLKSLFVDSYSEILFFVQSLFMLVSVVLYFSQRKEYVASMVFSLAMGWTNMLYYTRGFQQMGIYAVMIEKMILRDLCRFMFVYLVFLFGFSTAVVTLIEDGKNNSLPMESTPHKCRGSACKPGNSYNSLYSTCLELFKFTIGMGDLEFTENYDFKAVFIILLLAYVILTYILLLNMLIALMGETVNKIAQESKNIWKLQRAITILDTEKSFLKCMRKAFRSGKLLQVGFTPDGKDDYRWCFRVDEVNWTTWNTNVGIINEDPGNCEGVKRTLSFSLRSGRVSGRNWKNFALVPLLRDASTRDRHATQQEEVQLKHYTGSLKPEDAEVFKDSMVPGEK
T3 sequence (O35433 whole entry S502A/S800A): as the sequence (O35433 whole entry, the tested form may be a part) above, with S502A, S800A counted along it
T2 sequence (Q8BLA8+Q7Z020 fused, change not shown): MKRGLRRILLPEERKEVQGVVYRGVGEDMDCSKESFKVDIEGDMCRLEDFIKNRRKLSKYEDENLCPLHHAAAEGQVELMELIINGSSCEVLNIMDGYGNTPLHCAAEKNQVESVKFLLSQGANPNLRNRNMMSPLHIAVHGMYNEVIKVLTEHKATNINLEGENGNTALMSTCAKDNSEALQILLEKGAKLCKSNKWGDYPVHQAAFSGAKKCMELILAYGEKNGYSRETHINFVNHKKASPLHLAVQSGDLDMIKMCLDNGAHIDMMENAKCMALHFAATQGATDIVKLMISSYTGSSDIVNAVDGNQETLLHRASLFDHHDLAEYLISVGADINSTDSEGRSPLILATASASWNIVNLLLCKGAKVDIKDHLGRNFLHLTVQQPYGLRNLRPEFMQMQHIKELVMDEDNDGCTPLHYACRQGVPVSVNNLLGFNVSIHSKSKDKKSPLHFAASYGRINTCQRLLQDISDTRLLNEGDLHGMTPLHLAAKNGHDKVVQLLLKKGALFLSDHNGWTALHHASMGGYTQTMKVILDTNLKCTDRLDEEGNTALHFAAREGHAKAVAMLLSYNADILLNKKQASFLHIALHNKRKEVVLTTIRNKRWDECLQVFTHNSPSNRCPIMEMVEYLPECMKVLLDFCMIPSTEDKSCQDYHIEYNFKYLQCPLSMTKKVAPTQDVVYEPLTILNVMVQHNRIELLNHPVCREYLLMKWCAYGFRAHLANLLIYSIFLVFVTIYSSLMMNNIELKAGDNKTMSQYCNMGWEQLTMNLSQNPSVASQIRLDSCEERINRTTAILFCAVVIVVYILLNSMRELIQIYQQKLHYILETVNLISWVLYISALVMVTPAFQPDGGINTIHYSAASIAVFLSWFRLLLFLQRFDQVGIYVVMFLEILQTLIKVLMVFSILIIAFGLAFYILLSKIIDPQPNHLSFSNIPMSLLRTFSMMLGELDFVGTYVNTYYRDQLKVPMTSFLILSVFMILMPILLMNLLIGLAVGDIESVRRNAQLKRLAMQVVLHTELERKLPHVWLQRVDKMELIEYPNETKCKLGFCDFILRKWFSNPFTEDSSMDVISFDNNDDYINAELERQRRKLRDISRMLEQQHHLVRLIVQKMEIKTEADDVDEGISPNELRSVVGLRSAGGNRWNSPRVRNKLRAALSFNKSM

## C=CCN=C=S [AITC]
[1]
  Isoflurane-responsive neurons also sensitive to AITC: 91%
Drosophila TRPA1
  Sensitivity of Drosophila TRPA1: insensitive
dTRPA1-mN chimera
  Response of dTRPA1-mN chimera: conferred AITC-sensitivity

## CCCC(=O)O[C@@H]1[C@@H](C)[C@@]2(O)[C@@H](C=C(CO)C[C@]3(O)C(=O)C(C)=C[C@@H]23)[C@@H]2C(C)(C)[C@]12OC(=O)CCC [PDBu, phorbol 12, 13 dibutyrate]
TRPV1
  Temperature threshold of TRPV1 heat activation, PDBu alone: 39.3±2.3 °C
Mutant S502A/S800A TRPV1
  Effect of PDBu in oocytes expressing mutant TRPV1: did not produce a significant effect
